According to patent US7709002B1, “Mutated ras peptides for generation of CD8+Cytotoxic T lymphocytes” (The United States of America as represented by the …, priority 1996, dated 2010):

Experiments:
[1] = test system: CD4+ T cell line of RAS patient 43; test: Lymphoproliferation (3H-thymidine uptake) of PBMC cultures / CD4+ T cell line of RAS patient 43; assay type: cell-based, human; details: for Proliferation Response cpm(± SEM) / Proliferation Response SI (stimulation index): 4th IVS
[2] = test system: CD4+ T cell line of RAS patient 43; test: Proliferation of patient 43 CD4+ T cell line to ras protein from tumor cell extracts captured on pan-ras MAb RAS 10 and presented by autologous BLCL; assay type: cell-based, human
[3] = test system: CD4+ T cell line of patient 29; test: Lymphoproliferation (3H-thymidine uptake) of PBMC cultures / CD4+ T cell line of patient 29; assay type: cell-based, human
Source text: In vitro stimulation (IVS) cycles for evaluation of CD4^+ T cell responses. IVS cycles were established to: (i) amplify detection of a low proliferative response, (ii) compare “pre-immune” to “post-immune” lymphocytes over a period to time for assessment of potential peptide-specific reactivity, and (iii) derive peptide-specific CD4^+ T cell lines in culture for detailed phenotypic and functional characterization. […]
Proliferation response. […] Cells were collected with a TOMTEC MACH II 96 harvester (Wallace, Inc., Gaithersburg, Md.) and incorporated radioactivity was measured by liquid scintillation spectroscopy (1205 Betaplate flat bed LS counter; Wallace). MHC class I or II restriction was analyzed in MAb blocking experiments using anti-HLA-A, B, C (clone G46-2.6) or anti-HLA-DR, anti-HLA-DP or anti-HLA-DQ (clones TU36, HI43 or TU169, respectively) (all from Pharmingen). […] Results were expressed as the mean cpm±SEM of triplicate cultures or stimulation index, which was calculated by dividing the cpm of experimental cultures (means counts of triplicate wells) by the cpm of unstimulated control cultures (mean counts of triplicate wells).

human HLA-A2 = target: T1, human HLA-A2 (Homo sapiens, UniProt P04439, D140Y/D185E/D98H/E176V/E277Q/G131W/G231S/I119V/I121R/I166T/I218V/L300P/L318F/N151K/N90K/P208A/P217A/Q86G/Q94H/R138H/R169H/T345S); test: HLA-A2 binding bioassay on T2 cells (flow cytometry); details: T2 bioassay
T1 construct: The 174CEM.T2 cell line (“T2”), (transport deletion mutant); endogenous in cells; host or cells: 174CEM.T2 (T2) human cell line

[4] = test system: HLA-A2+ peptide-pulsed targets; test: Generation and cytotoxicity of ras4-12(V12)-specific CD8+ CTL line from a normal HLA-A2+ donor; assay type: cell-based, human; details: wild-type printed as wild-type ras peptide
[5] = test system: T2 cell line as target of CD8+ CTL line of RAS patient 32; test: 51Cr-release cytotoxicity of CD8+ CTL line of RAS patient 32 against peptide-pulsed T2 targets; assay type: cell-based, human; details: peptide 10 μg/ml, IVS cycle 7 (FIG. 5)
Procedure: FIG. 5. Cytolytic activity by CD8^+ CTL line of RAS patient 32 is peptide-specific. The CD8^+ CTL line of RAS patient 32 (see FIG. 3) was assayed against the T2 cell line as a target, incubated with and without different ras peptides (10 μg/ml), as shown. In parallel, the extent of NK activity was evaluated against K562 cells. Cytotoxicity was determined by ^51Cr-release, and the results expressed at different E/T ratios following IVS cycle 7. Similar results were observed using the second, independently-derived CD8^+ CTL line as described in Table 6.
IVS cycles for evaluation of CD8^+ T cell responses from HLA-A2+Patients. Freshly-thawed PBMC (from ras patients 32 and 33), derived pre-vaccination and post-third vaccination, were enriched in T lymphocytes by passage over nylon wool columns (Robbins Scientific, Sunnyvale, Calif.) and then depleted of CD4^+ T cells by negative selection via panning on anti-CD4 MAb-coated T25 flasks (Applied Immune Sciences, Santa Clara, Calif.). For the first IVS cycle, CD8^+ enriched lymphocytes (5×10^5/well) were cultured in 24-well plates with irradiated, autologous PBMC (5×10^6/well) as APC which had been preincubated for 3 hours with the appropriate mutant ras peptide ([…]) plus human β2-microglobulin (10 μg/ml) (Calbiochem, San Diego, Calif.). […] IL-2 (10 U/ml) was added 3 days later. After an additional 7 days, viable cells (2-5×10^5/well) were re-cultured by weekly stimulation with APC pre-pulsed with peptide/β2-microglobulin, and IL-2 added one day later. After the third or fourth IVS cycle, autologous PBMC were replaced with EBV-transformed, autologous BLCL (5×10^5/well) as APC. […] CTL activity was evaluated from cultures 5 to 6 days after Ag restimulation.
Cytotoxic response. Cytotoxicity was examined by a conventional ^51Cr-release assay, as described (6). Briefly, target cells (i.e. T2, C1R-A2, BLCL, K562) were radiolabeled with 200 μCi of Na2[^51Cr]04 (Amersham) for 60 minutes at 37° C., followed by thorough washing to remove unincorporated isotope. Effectors and targets (1×10^4/well) were incubated in 96-well, U-bottomed plates (Costar) at various effector target (E/T) ratios in the absence and presence of peptide (+/−monoclonal antibody (MAb) directed against CD4, CD8 or HLA-A2 molecules (clone BB7.2 from ATCC)) for up to 6 hours. After incubation, supernatants were collected using a Supernatant Collection System (Skatron, Sterling, Va.) and radioactivity measured in a γ-counter (Packard Instruments, Downers Grove, Ill.). Cytotoxic activity was defined as percent specific release of ^51Cr and determined by the equation: [(experimentalcpm−spontaneouscpm)/maximumcpm−spontaneouscpm)]×100. Results were expressed as the mean±SEM of triplicate cultures. […]

[6] = test system: C1R-A2 targets / autologous EBV-B cells as targets of CD8+ CTL line of patient 29; test: 51Cr-release cytotoxicity of CD8+ CTL line of patient 29 against C1R-A2 or autologous EBV-B targets; assay type: cell-based, human; details: patient 29 lymphocytes after IVS cycle 7 (FIG. 9A)
Procedure: FIGS. 9A and 9B. Production of a peptide-specific CD8^+ T cell line from post-vaccinated lymphocytes of patient 29. FIG. 9A: A CD8^+ CTL line was established from post-vaccinated PBMC of patient 29 and assayed for peptide specificity against C1R-A2 targets. Cytotoxicity was determined by ^51Cr-release, and the results expressed at different effector/target ratios following IVS cycle 7. FIG. 9B: Using this CD8^+ CTL line, the requirement for HLA-A2 in peptide presentation (by autologous EBV-B cells as targets) was determined in blocking experiments using MAb (clone BB7.2; ascites=1:30 dilution) directed against that molecule (or using an isotype-matched MAb). […] CD4 and CD8 MAbs were as described for FIGS. 8A and 8b. Control lysis in the absence of peptide or in the presence of ras5-14(Gly12) was <3%.
(§1) Cytotoxic response. Cytotoxicity was examined by a conventional ^51Cr-release assay, as described (6). […] After incubation, supernatants were collected using a Supernatant Collection System (Skatron, Sterling, Va.) and radioactivity measured in a γ-counter (Packard Instruments, Downers Grove, Ill.). Cytotoxic activity was defined as percent specific release of ^51Cr and determined by the equation: [(experimentalcpm−spontaneouscpm)/maximumcpm−spontaneouscpm)]×100. Results were expressed as the mean±SEM of triplicate cultures. […]

[7] = test system: SW480 colon carcinoma cell line (HLA-A2+, rasVal12+); test: 51Cr-release cytotoxicity of CTL against SW480 colon carcinoma cells; assay type: cell-based, human
Procedure: FIGS. 10A and 10B. Anti-ras Val12-specific CTL from patient 29 lyse SW480 tumor targets in the absence of exogenous peptide. FIG. 10A: Anti-ras Val12-specific CD8^+ CTL from patient 29 were assayed against the SW480 colon carcinoma cell line (HLA-A2^+, rasVal12+) in the absence of exogenous peptide, with or without IFN-γ pretreatment (250 U/ml for 24 hr) of the target cells. CD8^+ CTL reactive with the […] peptide were used as an irrelevant effector cell population. Cytotoxicity was determined by ^51Cr-release, and the results expressed at different effector/target ratios. FIG. 10B: In parallel to 10A, anti-ras or anti-MART-1-specific CTL were assayed against SW480 (±IFN-γ pretreatment) at an effector/target ratio of 10/1 in the absence or presence of exogenous peptide (5 μg/ml). […] Flow cytometric analysis of SW480 cells for expression of HLA-A2: untreated=65.4% with MFI of 29.8; IFN-γ-pretreated=99.5% with MFI of 349.6. Flow cytometric analysis of SW480 cells for expression of ICAM-1: untreated=16.0% with MFI of 30.3; IFN-γ-pretreated=98.6% with MFI of 181.9.
as §1
Studies were also carried out to determine whether such peptide-induced CD8^+ CTL could recognize a processed form of the corresponding mutant ras protein. […] In contrast to the CD4^+ analysis, which measured lymphoproliferation to soluble protein, the CD8^+ CTL analysis reflected lytic ability against SW480 cells harboring the naturally-occurring mutation in the absence of exogenously added peptide. […]

[8] = Post-Immune culture, peptide 3 μg/ml
[9] = Post-Immune culture, peptide 10 μg/ml
[10] = Post-Immune culture, peptide 30 μg/ml
[11] = Pre-Immune culture, peptide 3 μg/ml
[12] = Pre-Immune culture, peptide 10 μg/ml
[13] = Pre-Immune culture, peptide 30 μg/ml
[14] = Pre-Immune culture, peptide 100 μg/ml

Lys-Leu-Val-Val-Val-Gly-Ala-Gly-Gly-Val-Gly-Lys-Ser (KLVVVGAGGVGKS) [ras5-17(Gly12)]
Proliferation Response cpm(± SEM) ([1]; Post-Immune culture (post-third vaccination), peptide 100 μg/ml): 640 ± 23 cpm
Proliferation Response SI (stimulation index) [1, 8]: 1.0
Proliferation Response cpm(± SEM) [1, 8]: 694 ± 19 cpm
Proliferation Response SI (stimulation index) [1, 9]: 1.1
Proliferation Response cpm(± SEM) [1, 9]: 725 ± 27 cpm
Proliferation Response SI (stimulation index) [1, 10]: 1.2
Proliferation Response cpm(± SEM) [1, 10]: 819 ± 142 cpm
Proliferation Response SI (stimulation index) ([1]; Post-Immune culture, peptide 100 μg/ml): 1.0
Proliferation Response SI (stimulation index) [1, 11]: 0.9
Proliferation Response cpm(± SEM) [1, 11]: 824 ± 255 cpm
Proliferation Response SI (stimulation index) [1, 12]: 1.1
Proliferation Response cpm(± SEM) [1, 12]: 768 ± 257 cpm
Proliferation Response SI (stimulation index) [1, 13]: 1.0
Proliferation Response cpm(± SEM) [1, 13]: 849 ± 14 cpm
Proliferation Response SI (stimulation index) [1, 14]: 0.9
Proliferation Response cpm(± SEM) [1, 14]: 790 ± 456 cpm
Proliferation, control culture (cpm±SEM) ([1]; T cells+BLCL+peptide 10 μg/ml, IVS cycle 15 (FIG. 2B)): 7,690±383 cpm
Proliferation Response cpm(± SEM) ([2]; Table 5: peptide 10 μg/ml, RAS 10 coating +, BLCL +): 8,844 ± 753 cpm
Proliferation Response cpm(± SEM) ([2]; peptide 30 μg/ml, wells pre-coated with RAS 10, BLCL as APC): 8,130 ± 314 cpm
Proliferation, control culture (cpm±SEM) ([3]; T cells+EBV-B cells+peptide 3 μg/ml, IVS cycle 4 (FIG. 8B), without peptide 19,256±1926): 18,116±1474 cpm
Peptide-induced proliferation of patient 29 post-vaccination PBMC (in words) ([3]; post-vaccination, following IVS (FIG. 8A)): no proliferative response was detectable

ras4-12(G12): proto-ras 9-mer sequence positions 4-12 with Gly at position 12 (YKLVVVGAG)
Binding to HLA-A2 on T2 cells (in words) (human HLA-A2): failed to bind to HLA-A2
Generation of peptide-specific CTL line / lysis of peptide-pulsed targets (in words) [4]: No lysis was detectable

Lys-Leu-Val-Val-Val-Gly-Ala-Val-Gly-Val [ras5-14(Val12)]
Sensitization of T2 targets for lysis (in words) [5]: failed to stimulate lysis
Peptide-specific lysis of C1R-A2 targets (in words) [6]: displayed peptide-specific, cell-mediated lysis
Effect of exogenous peptide on anti-rasVal12 CTL-mediated lysis of SW480 ([7]; peptide 5 μg/ml, E/T 10/1 (FIG. 10B), control printed as wild-type ras peptide): enhanced
Lysis of SW480 by anti-MART CTL in presence of exogenous peptide ([7]; with or without IFN-γ (FIG. 10B)): failed to lyse SW480 target cells
